IC50 data for 89 compounds are collected here from PubChem BioAssay AID2305 (GlaxoSmithKline (GSK), 2010).

This assay concerns P. falciparum 3D7 growth, pLDH absorbance. Put plainly: P. falciparum 3D7 growth inhibition, dose response, strain 3D7 (AID 2305).

The term IC50 denotes the concentration that inhibits the measured activity by half. With `CC(Cc1ccc(NC(=O)COc2ccc(CC(C)NCCc3cccc(Cl)c3)cc2)cc1)NCCc1cccc(Cl)c1` (centres undefined), the half-inhibitory concentration (IC50) amounted to 80 nM.

In the case of `Cc1[nH]cc(Br)c(=O)c1-c1ccc(Oc2ccc(OC(F)(F)F)cc2)cc1`, the IC50 turned out to be 330 nM. Turning to `COc1cc(Cc2cnc(N)nc2N)ccc1OCc1cccc(Oc2ccccc2)c1`, the IC50 was 1330 nM. In the case of `O=C(Nc1cc(Cl)ccc1O)c1ccc(Oc2ccc(C(=O)Nc3cc(Cl)ccc3O)cc2)cc1` it was 920 nM; in that of `O=C(Cc1cccs1)NC(CCCN1CCC(Oc2cccc(Cl)c2)CC1)c1ccc(Cl)c(Cl)c1` (centres undefined), 250 nM; in that of `CCOC(C(=O)OCC1CCCN1C)(c1ccccc1)c1ccccc1` (centres undefined), 860 nM. With `COc1ccccc1N1CCN(CCCCNC(=O)c2ccc(NC(=O)c3ccc(C(F)(F)F)cc3)cc2)CC1` the figure was 300 nM. Regarding `COc1ccc2nccc([C@@H](O)CN3CCC(NC(=O)Cc4ccc(Br)c5ccccc45)CC3)c2c1`, the IC50 came out at 820 nM. In the case of `COc1ccccc1C1CCN(C2CCC(NC(=O)/C=C/c3cccc(Cl)c3F)CC2)CC1` (centres undefined) it was 1290 nM; in that of `CN1CCN(c2nsc3ccc(-c4ccc(OCCN5CCCC5)cc4)cc23)CC1`, 830 nM. In turn, `CCOc1ncccc1CN1CCC(N2CCc3cc(NC(=O)c4cc(C)on4)ccc32)C1` (centres undefined) came in with an IC50 of 310 nM.

With `CCOC(=O)c1c(CSc2ccccc2)oc2cc(CN(C)C)c(O)c(Cl)c12`, the IC50 was found to be 660 nM. In the case of `Cc1cc(OC(C)C(=O)N2CCc3ccccc32)ccc1Cl` (centres undefined) it was 790 nM. With `CSc1ccc2nccc(Nc3ccc(Oc4ccccc4)cc3)c2c1` the figure was 870 nM; with `Cc1ccc(Cl)cc1NC(=O)c1c(-c2ccccc2Cl)noc1C`, 190 nM.

Take `CCOC(=O)c1ccc(OCCCCCCOc2ccc(Br)cc2)cc1`: the IC50 was determined as 780 nM. `CCCC1N=C(N)N=C(N)N1c1ccccc1` (centres undefined) registered a 50% inhibitory concentration (IC50) of 820 nM. `COc1ccc2c(=O)ccn(CCN3CCC(NCc4ccc5c(n4)NC(=O)CS5)CC3)c2c1` came in with a concentration for half-maximal inhibition (IC50) of 230 nM. In the case of `Clc1ccc(OCc2ccccc2)c(-c2nc(-c3nc4ncc(Br)cc4[nH]3)cs2)c1` it was 210 nM. In the case of `N#Cc1cccc(C(=O)Nc2cccc(-c3cccc(CN4CCNCC4)c3)c2)c1` it was 950 nM; in that of `Cc1c(C)n(C2CCCCC2)c2ncnc(OC3CCN(CC(=O)NC4CC4)CC3)c12`, 1240 nM; in that of `Clc1ccc(CNc2ccnc(NCc3ccc4c(c3)OCCCO4)n2)c(Cl)c1`, 990 nM. With `CCc1c(CCNCCCCCCNCCc2ccc(Br)cc2)ccc(O)c1O` the figure was 900 nM. `CNCC(O)c1cc(Cl)c(Cl)cc1C` (centres undefined) returned an IC50 of 920 nM. In the case of `Cn1cncc1C(=O)Nc1ccc(-c2cccc(-c3nc4ccc(F)cc4[nH]3)c2)cc1` it was 820 nM; in that of `Cc1cc(NN=Cc2ccccc2F)c2cc(C(F)(F)F)ccc2n1`, 430 nM.

As for `O=C(C=Cc1ccc(F)cc1)NC1CCC(CCN2CCc3ccc(-c4cnccn4)cc3CC2)CC1` (centres undefined), the IC50 came out at 690 nM. `O=[N+]([O-])c1cccc(CNCC2CCN(Cc3ccc(O)cc3)CC2)c1`: the IC50 was 670 nM.

On to `O[C@@H](c1ccccc1)[C@@H]1CN(Cc2ccccc2)CC[C@@]1(O)c1ccccc1`, for which the IC50 is 850 nM.

`O=C(Nc1cccc(CN2CCCN(Cc3ccsc3)CC2)c1)c1ccc(Cl)c(Cl)c1` yielded an IC50 of 880 nM. In the case of `c1cc(-c2ccc(CNC3CCOCC3)cc2)cc(-c2nc3ccccc3[nH]2)c1` it was 770 nM; in that of `CCCC1N=C(N)N=C(N)N1c1ccc(C)c(C)c1` (centres undefined), 70 nM. In the case of `Oc1cccc(-c2nc3ccc(C4=N[C@H]5CCCC[C@H]5N4)cc3[nH]2)c1`, the IC50 came out at 590 nM. As for `COCC(C)n1c(SC(C)C(=O)Nc2cc([N+](=O)[O-])ccc2Cl)nc2ccccc2c1=O` (centres undefined), the half-inhibitory concentration (IC50) came to 230 nM. In turn, `Fc1ccc2nc(-c3cccc(-c4ccc(CNCC5CCCO5)cc4)c3)[nH]c2c1` (centres undefined) registered a half-maximal inhibitory concentration (IC50) of 540 nM. With `COc1cc2[nH]c(-c3ccc(O)cc3)c(C)c(=O)c2c(OC)c1OC` the figure was 720 nM; with `O=c1[nH]ccc2nc(N[C@@H]3CCNC3)nc(Nc3ccc4c(c3)S(=O)(=O)CC4)c12`, 380 nM. As for `c1cc(Nc2nccc(-c3cnn4ncccc34)n2)cc(-c2cnco2)c1`, the IC50 came out at 690 nM. On to `OC(CNC1CCCCC1)Cn1c2ccc(Br)cc2c2cc(Br)ccc21` (centres undefined), for which the IC50 came to 300 nM. Take `CC(C)(C)OC(=O)NCCc1cccc(-c2c[nH]c3ncc(-c4cccc(NS(C)(=O)=O)c4)cc23)c1`: the IC50 was 680 nM. In the case of `Cc1cc(CNCCCCCCNCc2ccc(-c3ccccc3)cc2)ccc1O` it was 900 nM; in that of `CC(C)c1ccc(CN2CCC(CNC(=O)c3cc(-c4cccc(C(F)(F)F)c4)cs3)C2)cc1` (centres undefined), 910 nM; in that of `CCCNc1nc(NCc2c(C)cccc2C)nc(NC(C)(C)C)n1`, 860 nM.

`OC(CNc1ccnc(Nc2cccc(Cl)c2)n1)c1ccc(C(F)(F)F)cc1` (centres undefined) displayed an IC50 of 770 nM. In the case of `Cc1ccc(-n2ncc(C(=O)Nc3cc(Cl)cc(Cl)c3)c2C2CCNCC2)cc1C` it was 550 nM; in that of `CC(=O)NC(c1cccs1)c1cc(Cl)c2cccnc2c1O` (centres undefined), 320 nM; in that of `c1ccc(Oc2ccc(Nc3ccnc4c(-c5ccccn5)cccc34)cc2)cc1`, 990 nM.

Regarding `CCCCCCP(=O)(COc1ccc(CCN(CC(O)COc2cccc3[nH]c(C(N)=O)cc23)CC(O)COc2cccc3[nH]c(C(N)=O)cc23)cc1)OCCCC` (centres undefined), the half-maximal inhibitory concentration (IC50) worked out at 720 nM.

Take `Cc1cc(CNCCCCCCCNCc2cccc([N+](=O)[O-])c2)ccc1O`: the 50% inhibitory concentration (IC50) was found to be 640 nM.

`N#Cc1ccc(N(CCCO)Cc2ccccc2C(F)(F)F)cc1C(F)(F)F` displayed a half-inhibitory concentration (IC50) of 980 nM. In the case of `COc1ccc2nccc([C@@H](O)CN3CCC(NC(=O)/C=C/c4ccc5[nH]c(=O)ccc5c4)CC3)c2c1`, the IC50 is 970 nM.

As for `Clc1cccc(CNC2CCN(CC3CCCCC3)CC2)c1`, the half-maximal inhibitory concentration (IC50) was found to be 910 nM. In turn, `CC(C)Cn1ncc2c3c(N)nc(N)nc3ccc21` gave an IC50 of 160 nM.

In the case of `CC(C)CNCc1cccc(-c2ccc(CNC3CCN(Cc4ccccc4)CC3)cc2)c1`, the IC50 worked out at 270 nM. In the case of `CCS[C@@H]1O[C@H](COC(=O)c2ccccc2)[C@H](OC(=O)c2ccccc2)[C@H](OC(=O)c2ccccc2)[C@H]1OC(=O)c1ccccc1` it was 810 nM; in that of `CC(C)C1=C[C@H]2C[C@]3(C4OCCO4)[C@@H]4CC[C@@H](C)[C@H]4C[C@@]2(C(=O)OCC2COCO2)[C@]13C(=O)OC(c1ccccc1)c1ccccc1` (some centres undefined), 850 nM; in that of `COc1ccc2ncc(F)c(CCN3C[C@H](CNCc4ccccc4)[C@H](O)C3)c2n1`, 910 nM. Compound `O=C(NCC1COc2ccccc2O1)c1cnc2c(c1)nc(-c1cnc(-c3ccccc3)[nH]1)n2CCSCc1c(F)cccc1Cl` (centres undefined) came in with an IC50 of 960 nM. For the compound `c1ccc(Oc2ccc(Nc3nncc4ccccc34)cc2)cc1`, the concentration for half-maximal inhibition (IC50) was found to be 690 nM. `O=C(Nc1cccc(-c2ccc(-c3nc4ccccc4[nH]3)cc2)c1)c1csnn1` showed a half-inhibitory concentration (IC50) of 1070 nM.

`O=C(N[C@@H](CC1CCCCC1)C(=O)NC1CCCc2ccccc21)c1ccc(O)c(-c2cccc(C(F)(F)F)c2)c1` (some centres undefined): the IC50 is 600 nM. In the case of `O=C(NCC1CCC1)c1cnc(Nc2cccc(Cl)c2)nc1N1CCC1` it was 860 nM; in that of `CCOc1cc(C)ccc1N(C1CCN(CCCCNC(=O)c2ccc(-c3ccc(C(F)(F)F)cc3)cc2)CC1)S(=O)(=O)c1ccccc1`, 1020 nM; in that of `CCOc1ccc(S(=O)(=O)N(C)c2ccc(OCC(=O)Nc3nccs3)cc2)cc1`, 960 nM. For the compound `N#Cc1ccc(NC(=NC2CCCc3ccccc32)Nc2ccc(-c3ccccc3)cc2)c(O)c1` (centres undefined), the half-maximal inhibitory concentration (IC50) was found to be 780 nM. For the compound `O=C(Nc1ccc(Cl)cc1)Nc1cccc(-c2cccc(-c3nc4ccccc4[nH]3)c2)c1`, the half-maximal inhibitory concentration (IC50) was 130 nM. In turn, `CCOc1ccc(C(C)NC(=O)c2ccc(OC)c(Br)c2)cc1OCC` (centres undefined) came in with a half-inhibitory concentration (IC50) of 710 nM. In the case of `O=S1c2ccccc2Sc2ccccc21`, the 50% inhibitory concentration (IC50) stood at 170 nM.

The compound `Cc1[nH]c(C)c(-c2ccc(OCc3ccc(F)cc3)cc2)c(=O)c1Br` displayed an IC50 of 80 nM. With `CN1CCC(COc2ccc(CN3CCC(NC(=O)c4cccc(Cl)c4)CC3)cc2)CC1` the figure was 890 nM; with `CC(C)(CNCc1ccc(F)c(F)c1)c1nc(-c2ccc(Cl)c(O)c2)c(-c2ccncc2)[nH]1`, 660 nM. Compound `Cc1ccc(NC(=O)c2ccc(Cl)c(Cl)c2)cc1-c1ccc(C(=O)Nc2ccncc2)cc1` had an IC50 of 570 nM. In turn, `O=C(Nc1ccc(Cn2ncc(N3CCCNCC3)c(Cl)c2=O)cc1)Nc1cccc(C(F)(F)F)c1` had an IC50 of 640 nM. With `Cc1cc(NC(=O)Nc2ccc(C#N)cc2)c2ccccc2n1` the figure was 570 nM.

The compound `Cc1ccc(CNC(=O)[C@H](Cc2ccccc2)Nc2cc(C)nc(NCC3CCCCC3)n2)cc1` showed an IC50 of 900 nM. In the case of `Cc1cccc2[nH]c(-c3cccc(-c4cccc(NC(=O)C(C)CN(C)C)c4)c3)nc12` (centres undefined) it was 410 nM; in that of `CC[C@H](N=C(Nc1ccc(-c2ccccc2)cc1)Nc1ccc(C#N)cc1O)c1ccccc1`, 760 nM; in that of `CN(C)c1ccc(-c2ccc(C(=O)NC3CCN(Cc4ccc(C(C)(C)C)cc4)CC3)s2)cc1`, 970 nM. With `N#Cc1cc(C(=O)Nc2ccccc2)c(N)nc1SCC(=O)Nc1ccc(Br)cc1` the figure was 1100 nM; with `O=C(Nc1ccc(F)cc1)NC1CCN(c2ccnc3cc(Cl)ccc23)CC1`, 410 nM. In the case of `FC(F)(F)c1ccc2nc(-c3ccc(-c4ccc(CNCc5cnn(-c6ccccc6)n5)cc4)cc3)[nH]c2c1`, the half-inhibitory concentration (IC50) worked out at 430 nM. With `OC1CCC(Nc2ccc3ncc(-c4ccc(Cl)cc4)n3n2)CC1` (centres undefined) the figure was 820 nM; with `COc1ccc(OCC(O)CN(Cc2ccccc2OC)C(=O)Nc2ccc(Br)cc2)cc1` (centres undefined), 750 nM; with `CC(C)C(NC(=O)Cc1cccc2ccccc12)C(=O)Nc1cccc(C#N)c1` (centres undefined), 660 nM. The compound `CCCSc1nc2c(c(=O)n1CCc1ccccc1)C1(CCCC1)Cc1ccccc1-2` displayed an IC50 of 700 nM. `CCCCN(CCCC)CCCN(CCCN(CCCC)CCCC)c1cc(C)nc(Nc2ccc(Cl)cc2)n1` returned an IC50 of 370 nM.

Regarding `CC(C)N(CC(=O)c1ccc(O)c(C(=O)O)c1)Cc1ccccc1`, the half-maximal inhibitory concentration (IC50) was determined as 190 nM. `O=C(Nc1nccs1)c1cn(-c2ccccc2)nc1-c1ccc(Cl)s1`: the IC50 worked out at 970 nM.

For the compound `CCCNc1nc(Nc2ccccc2C)nc2ccccc12`, the IC50 was 890 nM.
